Measured values reported in patent US20180344726A1, “ABUSE RESISTANT TRANSDERMAL DELIVERY DEVICES AND COMPOSITIONS COMPRISING AN OPIOID AGONIST AND A NON-TRANSDERMALLY DELIVERED N-OXIDE DERIVATIVE OF AN OPIOID ANTAGONIST FOR THE TREATMENT OF PAIN” (priority 2015, published 2018).
Like-named read-outs stand apart in the source and are kept apart here.

Tests used:
Type in all cases: physicochemical
[1] = Concentration of saturated antagonist solutions in phosphate buffer pH 5.0; settings: phosphate buffer pH 5.0, stirred overnight, filtered
Experimental: The determination of in vitro skin permeation was performed with saturated solutions of the respective antagonist species. Therefore an excess of the antagonist was weighed in phosphate buffer of pH 5.0 and stirred overnight. pH was monitored and, if necessary, adjusted. The cells were incubated at 32° C. Solutions were filtrated through a syringe filter (1 μm PTFE) prior to application into the diffusion cells. Concentrations of the solutions were determined.
The determination of naloxone and naloxone N-oxide in the acceptor medium of the in vitro skin permeations samples (receptor phase) was done by HPLC with UV-detection.

[2] = Log P by potentiometric (pH-metric) octanol/water titration; settings: Neutral species, 25.0 ° C., 0.15M KCl, read-out: LogP
Experimental: (§1) pKa analysis was performed using a pH-metric method. […] No precipitation or degradation was observed and two pKas were determined from the potentiometric data. Log P was determined using the potentiometric (pH-metric method). The sample was titrated in various ratios of octanol/water in two titrations covering the pH range 2.0-12.0 at concentrations of 1.9-1.1 mM. The shift of the aqueous pKas in the presence of octanol was used to determine the log P of the neutral species.

[3] = pKa analysis by pH-metric triple titration; settings: aqueous solution, […] C., […] KCl, read-out: pKa
Experimental: as §1

For `C=CCN1CC[C@]23c4c5ccc(O)c4O[C@H]2C(=O)CC[C@@]3(O)[C@H]1C5` [Naloxone, (4R,4aS,7aR,12bS)-4a,9-dihydroxy-3-prop-2-enyl-2,4,5,6,7a,13-hexahydro-1H-4,12-methanobenzofuro[3,2-e]isoquinoline-7-one, reference compound], the “Concentration saturated solution c” value [1] was 4460 µg/mL, the logP [2] was 1.97 and the pKa ([3]; Type Acid) was 9.15 ± 0.01. It also gave a pKa ([3]; Type Base) of 8.07 ± 0.01.
